Values of other authors, collected in patent publication US8563582B2, “3-aminocyclopentanecarboxamides as modulators of chemokine receptors” (priority 2004, dated 2013).

Experiments:
[1] = biological target: rhesus macaque CCR5 (Macaca mulatta, UniProt P61813)
[2] = biological target: human CCR5 (Homo sapiens, UniProt P51681)
[3] = tested on: HIV-1; settings: U-87 astroglioma cells
[4] = tested on: HIV-1
[5] = tested on: HIV

human CCR5, sequence (P51681 whole entry): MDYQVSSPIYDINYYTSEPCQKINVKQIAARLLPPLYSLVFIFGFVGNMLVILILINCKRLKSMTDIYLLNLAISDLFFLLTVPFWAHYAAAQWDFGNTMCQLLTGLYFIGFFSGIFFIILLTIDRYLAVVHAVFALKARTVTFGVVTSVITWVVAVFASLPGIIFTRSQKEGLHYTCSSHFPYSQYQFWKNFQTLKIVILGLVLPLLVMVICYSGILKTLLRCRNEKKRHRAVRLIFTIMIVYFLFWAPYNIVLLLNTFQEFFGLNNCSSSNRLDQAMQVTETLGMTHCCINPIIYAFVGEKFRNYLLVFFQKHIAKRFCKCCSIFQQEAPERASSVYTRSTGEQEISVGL

Row | Compound | inhibition of HIV-1 entry via rhesus macaque CCR5 [1] | inhibition of entry of HIV-1 via human CCR5 [2] | inhibition of HIV-1 infection mediated by CCR5 [3] | effect on infection of CXCR4-expressing cells [4] | anti-HIV activity [5]
1 | Cc1ncnc(C)c1C(=O)N1CCC(C)(N2CCN([C@@H](C)c3ccc(C(F)(F)F)cc3)[C@@H](C)C2)CC1 [AD101] | inhibits | inhibits |  |  | 
2 | CCO/N=C(\c1ccc(Br)cc1)C1CCN(C2(C)CCN(C(=O)c3c(C)cc[n+]([O-])c3C)CC2)CC1 [SCH-C] | does not |  | specifically inhibits | no effect | 
3 | Cc1ccc(-c2ccc3c(c2)C=C(C(=O)Nc2ccc(C[N+](C)(C)C4CCOCC4)cc2)CCC3)cc1.[Cl-] [TAK-779] |  |  |  |  | potent but variable
